The target in test [1] is TLR1/TLR2 (Homo sapiens, UniProt O60603+Q15399). Kind of test: TNF-α release from PMA-differentiated human THP-1 cells (ELISA).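 For all read-outs here: cells exposed to graded compound concentrations for 4 h, TNF-α quantified in supernatant, LPS as positive and DMSO as negative control, values are duplicate means.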 The conditions noted are these: for Emax: THP-1, 4 h, read-out: Efficacy (magnitude) of response versus diprovocim-1 (100%), THP-1.
The target in test [2] is TLR1/TLR2 (Mus musculus, UniProt Q9EPQ1+Q9QUN7). Description: TNF-α release from thioglycolate-elicited mouse peritoneal macrophages (ELISA). The conditions noted are these: for Emax: 4 h, read-out: Efficacy (magnitude) of response versus diprovocim-1 (100%), mouse macrophages.
The mark [3] stands for this setting: read-out: EC50 (nM) (THP-1): EC50 TNF-α release from human THP-1 cells, Table 3.
Setting [4] is: read-out: EC50 (nM) (mouse): EC50 TNF-α release from mouse macrophages, Table 3.

Like-named read-outs stand apart in the source and are kept apart here.

Chain of TLR1/TLR2 (Homo sapiens, UniProt O60603+Q15399) (Q15399 25-786): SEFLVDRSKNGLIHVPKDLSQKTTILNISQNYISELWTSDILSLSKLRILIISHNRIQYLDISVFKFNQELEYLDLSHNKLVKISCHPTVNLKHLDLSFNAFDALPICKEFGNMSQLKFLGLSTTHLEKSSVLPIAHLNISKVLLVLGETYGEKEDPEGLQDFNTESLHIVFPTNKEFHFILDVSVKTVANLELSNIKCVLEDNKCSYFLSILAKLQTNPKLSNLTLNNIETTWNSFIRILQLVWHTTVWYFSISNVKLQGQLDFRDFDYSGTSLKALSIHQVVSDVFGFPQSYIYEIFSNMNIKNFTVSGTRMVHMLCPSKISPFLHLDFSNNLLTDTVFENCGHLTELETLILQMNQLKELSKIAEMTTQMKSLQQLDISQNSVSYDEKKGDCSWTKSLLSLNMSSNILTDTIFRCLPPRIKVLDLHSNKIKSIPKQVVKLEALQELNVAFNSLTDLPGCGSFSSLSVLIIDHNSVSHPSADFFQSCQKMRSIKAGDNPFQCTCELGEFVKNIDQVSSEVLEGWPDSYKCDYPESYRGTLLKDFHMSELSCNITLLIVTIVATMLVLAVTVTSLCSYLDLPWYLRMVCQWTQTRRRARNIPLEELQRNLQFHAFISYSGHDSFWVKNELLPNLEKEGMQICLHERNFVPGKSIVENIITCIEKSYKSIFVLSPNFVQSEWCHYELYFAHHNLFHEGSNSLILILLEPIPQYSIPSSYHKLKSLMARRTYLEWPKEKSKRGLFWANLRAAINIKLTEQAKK
Chain of TLR1/TLR2 (Homo sapiens, UniProt O60603+Q15399) (O60603 21-784): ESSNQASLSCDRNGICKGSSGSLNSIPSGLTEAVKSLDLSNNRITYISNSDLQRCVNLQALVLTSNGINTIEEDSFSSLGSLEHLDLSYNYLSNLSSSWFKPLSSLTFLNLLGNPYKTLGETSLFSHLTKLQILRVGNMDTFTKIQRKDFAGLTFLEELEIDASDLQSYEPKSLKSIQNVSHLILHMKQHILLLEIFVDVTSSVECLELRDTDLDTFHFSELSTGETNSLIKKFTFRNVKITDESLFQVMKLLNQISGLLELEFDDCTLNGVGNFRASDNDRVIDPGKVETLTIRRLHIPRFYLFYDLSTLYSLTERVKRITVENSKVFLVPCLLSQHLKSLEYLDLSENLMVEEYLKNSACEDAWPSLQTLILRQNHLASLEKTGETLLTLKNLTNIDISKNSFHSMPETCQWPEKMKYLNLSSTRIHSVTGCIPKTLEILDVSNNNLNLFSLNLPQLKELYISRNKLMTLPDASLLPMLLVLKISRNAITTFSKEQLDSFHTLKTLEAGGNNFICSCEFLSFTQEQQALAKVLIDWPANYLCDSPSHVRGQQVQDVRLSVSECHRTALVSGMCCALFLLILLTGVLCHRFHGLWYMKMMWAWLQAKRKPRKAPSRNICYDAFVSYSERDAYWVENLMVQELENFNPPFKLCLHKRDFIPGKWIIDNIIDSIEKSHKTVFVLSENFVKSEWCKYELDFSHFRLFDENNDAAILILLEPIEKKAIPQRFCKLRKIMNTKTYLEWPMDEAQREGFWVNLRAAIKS
Chain of TLR1/TLR2 (Mus musculus, UniProt Q9EPQ1+Q9QUN7) (Q9EPQ1 26-795): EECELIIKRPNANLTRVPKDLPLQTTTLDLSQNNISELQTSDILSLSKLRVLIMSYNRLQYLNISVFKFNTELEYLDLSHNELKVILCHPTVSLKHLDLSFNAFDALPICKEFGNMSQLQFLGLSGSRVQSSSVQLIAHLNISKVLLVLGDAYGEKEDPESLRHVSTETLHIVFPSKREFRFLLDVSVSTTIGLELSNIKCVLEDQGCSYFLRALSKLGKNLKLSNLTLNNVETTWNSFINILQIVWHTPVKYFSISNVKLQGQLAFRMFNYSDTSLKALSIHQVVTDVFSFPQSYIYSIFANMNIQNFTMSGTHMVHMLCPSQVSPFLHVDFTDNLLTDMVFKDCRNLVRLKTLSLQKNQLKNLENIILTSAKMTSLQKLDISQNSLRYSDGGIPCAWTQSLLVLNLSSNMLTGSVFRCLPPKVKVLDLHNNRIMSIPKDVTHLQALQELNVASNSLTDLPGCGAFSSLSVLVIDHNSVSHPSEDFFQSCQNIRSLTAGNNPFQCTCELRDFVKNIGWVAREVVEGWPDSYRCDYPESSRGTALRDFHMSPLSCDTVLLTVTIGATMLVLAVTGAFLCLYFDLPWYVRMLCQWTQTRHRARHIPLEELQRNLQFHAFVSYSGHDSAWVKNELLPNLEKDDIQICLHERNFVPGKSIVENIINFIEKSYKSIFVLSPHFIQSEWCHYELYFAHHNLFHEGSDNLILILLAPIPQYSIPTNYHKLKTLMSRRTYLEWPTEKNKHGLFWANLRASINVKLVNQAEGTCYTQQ
Chain of TLR1/TLR2 (Mus musculus, UniProt Q9EPQ1+Q9QUN7) (Q9QUN7 25-784): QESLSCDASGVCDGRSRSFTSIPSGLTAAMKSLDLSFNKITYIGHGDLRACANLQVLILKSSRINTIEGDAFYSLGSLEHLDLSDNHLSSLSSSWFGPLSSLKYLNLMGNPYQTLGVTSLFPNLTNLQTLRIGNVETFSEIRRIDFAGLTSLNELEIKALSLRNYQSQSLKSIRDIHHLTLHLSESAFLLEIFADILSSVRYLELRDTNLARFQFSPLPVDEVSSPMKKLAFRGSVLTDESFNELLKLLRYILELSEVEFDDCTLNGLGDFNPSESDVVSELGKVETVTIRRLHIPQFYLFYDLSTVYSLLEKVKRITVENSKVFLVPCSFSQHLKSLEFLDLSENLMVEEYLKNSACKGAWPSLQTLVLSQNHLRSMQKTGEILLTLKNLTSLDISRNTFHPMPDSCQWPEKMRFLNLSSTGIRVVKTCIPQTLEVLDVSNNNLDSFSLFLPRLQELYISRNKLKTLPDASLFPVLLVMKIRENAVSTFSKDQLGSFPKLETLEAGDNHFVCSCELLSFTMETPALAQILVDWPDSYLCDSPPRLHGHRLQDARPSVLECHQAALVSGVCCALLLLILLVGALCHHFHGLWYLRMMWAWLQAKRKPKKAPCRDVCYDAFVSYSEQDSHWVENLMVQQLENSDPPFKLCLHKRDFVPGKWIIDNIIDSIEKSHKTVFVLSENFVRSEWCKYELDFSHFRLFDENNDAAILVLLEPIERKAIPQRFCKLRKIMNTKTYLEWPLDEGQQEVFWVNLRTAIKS

`CC(C)(C)C(=O)NCC(=O)OCCCCCCCCCCCCNC(=O)[C@@H]1CN(C(=O)c2ccc(C(=O)N3C[C@@H](C(=O)N[C@H]4C[C@@H]4c4ccccc4)[C@H](C(=O)N[C@H]4C[C@@H]4c4ccccc4)C3)cc2)C[C@H]1C(=O)N[C@H]1C[C@@H]1c1ccccc1` [Compound 42, 12-((3S,4S)-1-(4-((3S,4S)-3,4-Bis(((1S,2R)-2-phenylcyclopropyl)carbamoyl)pyrrolidine-1-carbonyl)benzoyl)-4-(((1S,2R)-2-phenylcyclopropyl)carbamoyl)pyrrolidine-3-carboxamido)-dodecyl 2-pivalamidoacetate]: the Emax on TLR1/TLR2 [1] and at TLR1/TLR2 [2] was 110% each time. The EC50 was 1.8 nM at TLR1/TLR2 [1] (setting [3]) and 6.2 nM at TLR1/TLR2 [2] (setting [4]).
`NCC(=O)OCCCCCCCCCCCCNC(=O)[C@@H]1CN(C(=O)c2ccc(C(=O)N3C[C@@H](C(=O)N[C@H]4C[C@@H]4c4ccccc4)[C@H](C(=O)N[C@H]4C[C@@H]4c4ccccc4)C3)cc2)C[C@H]1C(=O)N[C@H]1C[C@@H]1c1ccccc1` [Compound 43, 12-((3S,4S)-1-(4-((3S,4S)-3,4-Bis(((1S,2R)-2-phenylcyclopropyl)carbamoyl)pyrrolidine-1-carbonyl)benzoyl)-4-(((1S,2R)-2-phenylcyclopropyl)carbamoyl)pyrrolidine-3-carboxamido)dodecyl glycinate]: the EC50 was 0.05 to 0.2 nM on TLR1/TLR2 [1], 0.07 nM at TLR1/TLR2 [1] (setting [3]), 0.7 to 5 nM at TLR1/TLR2 [2] and 0.75 nM on TLR1/TLR2 [2] (setting [4]). Moreover, the Emax on TLR1/TLR2 [1] and at TLR1/TLR2 [2] was 100% in each case.
On to `CN(C)CC(=O)OCCCCCCCCCCCCNC(=O)[C@@H]1CN(C(=O)c2ccc(C(=O)N3C[C@@H](C(=O)N[C@H]4C[C@@H]4c4ccccc4)[C@H](C(=O)N[C@H]4C[C@@H]4c4ccccc4)C3)cc2)C[C@H]1C(=O)N[C@H]1C[C@@H]1c1ccccc1` [Compound 44, 12-((3S,4S)-1-(4-((3S,4S)-3,4-Bis(((1S,2R)-2-phenylcyclopropyl)carbamoyl)pyrrolidine-1-carbonyl)benzoyl)-4-(((1S,2R)-2-phenylcyclo-propyl)carbamoyl)pyrrolidine-3-carboxamido)-dodecyl 2-(dimethylamino)acetate], for which the EC50 at TLR1/TLR2 [1] was 0.05 to 0.2 nM; at TLR1/TLR2 [1] (setting [3]), 0.05 nM; on TLR1/TLR2 [2], 0.7 to 5 nM; at TLR1/TLR2 [2] (setting [4]), 4.7 nM. Besides, the Emax worked out at 100% at TLR1/TLR2 [1] and 140% at TLR1/TLR2 [2].
`O=C(CO)OCCCCCCCCCCCCNC(=O)[C@@H]1CN(C(=O)c2ccc(C(=O)N3C[C@@H](C(=O)N[C@H]4C[C@@H]4c4ccccc4)[C@H](C(=O)N[C@H]4C[C@@H]4c4ccccc4)C3)cc2)C[C@H]1C(=O)N[C@H]1C[C@@H]1c1ccccc1` [Compound 45, 12-((3S,4S)-1-(4-((3S,4S)-3,4-Bis(((1S,2R)-2-phenylcyclopropyl)carbamoyl)pyrrolidine-1-carbonyl)benzoyl)-4-(((1S,2R)-2-phenylcyclo-propyl)carbamoyl)pyrrolidine-3-carboxamido)dodecyl 2-hydroxyacetate]: the EC50 at TLR1/TLR2 [1] was 0.05 to 0.2 nM; on TLR1/TLR2 [1] (setting [3]), 0.2 nM; at TLR1/TLR2 [2], 0.7 to 5 nM; on TLR1/TLR2 [2] (setting [4]), 0.7 nM. Moreover, the Emax on TLR1/TLR2 [1] amounted to 100%; on TLR1/TLR2 [2] it was 140%.
`O=C(COCc1ccccc1)OCCCCCCCCCCCCNC(=O)[C@@H]1CN(C(=O)c2ccc(C(=O)N3C[C@@H](C(=O)N[C@H]4C[C@@H]4c4ccccc4)[C@H](C(=O)N[C@H]4C[C@@H]4c4ccccc4)C3)cc2)C[C@H]1C(=O)N[C@H]1C[C@@H]1c1ccccc1` [Compound 46, 12-((3S,4S)-1-(4-((3S,4S)-3,4-Bis(((1S,2R)-2-phenylcyclopropyl)carbamoyl)pyrrolidine-1-carbonyl)benzoyl)-4-(((1S,2R)-2-phenylcyclopropyl)-carbamoyl)pyrrolidine-3-carboxamido)-dodecyl 2-(benzyloxy)acetate]: the EC50 was 0.05 to 0.2 nM at TLR1/TLR2 [1], 0.06 nM at TLR1/TLR2 [1] (setting [3]), 0.7 to 5 nM at TLR1/TLR2 [2] and 5.3 nM on TLR1/TLR2 [2] (setting [4]). For the same molecule, the Emax on TLR1/TLR2 [1] stood at 130%; on TLR1/TLR2 [2], 220%.
Regarding `CC(C)(C)OCC(=O)OCCCCCCCCCCCCNC(=O)[C@@H]1CN(C(=O)c2ccc(C(=O)N3C[C@@H](C(=O)N[C@H]4C[C@@H]4c4ccccc4)[C@H](C(=O)N[C@H]4C[C@@H]4c4ccccc4)C3)cc2)C[C@H]1C(=O)N[C@H]1C[C@@H]1c1ccccc1` [Compound 47, 12-((3S,4S)-1-(4-((3S,4S)-3,4-Bis(((1S,2R)-2-phenylcyclopropyl)carbamoyl)pyrrolidine-1-carbonyl)benzoyl)-4-(((1S,2R)-2-phenylcyclopropyl)-carbamoyl)pyrrolidine-3-carboxamido)dodecyl 2-(tert-butoxy)acetate], the Emax was 100% on TLR1/TLR2 [1] and 230% on TLR1/TLR2 [2]. Besides, the EC50 on TLR1/TLR2 [1] (setting [3]) was 0.65 nM; at TLR1/TLR2 [2] (setting [4]) it was 5 nM.
In the case of `CC(C)(C)OC(=O)NCCOCCCCCCCCCCCCNC(=O)[C@@H]1CN(C(=O)c2ccc(C(=O)N3C[C@@H](C(=O)N[C@H]4C[C@@H]4c4ccccc4)[C@H](C(=O)N[C@H]4C[C@@H]4c4ccccc4)C3)cc2)C[C@H]1C(=O)N[C@H]1C[C@@H]1c1ccccc1` [Compound 48, tert-Butyl (2-((12-((3S,4S)-1-(4-((3S,4S)-3,4-bis(((1S,2R)-2-phenylcyclopropyl)carbamoyl)-pyrrolidine-1-carbonyl)-benzoyl)-4-(((1S,2R)-2-phenylcyclopropyl)carbamoyl)pyrrolidine-3-carbox-amido)dodecyl)oxy)ethyl)carbamate], the Emax worked out at 100% on TLR1/TLR2 [1] and 220% on TLR1/TLR2 [2]. Moreover, the EC50 at TLR1/TLR2 [1] (setting [3]) stood at 3 nM; on TLR1/TLR2 [2] (setting [4]) it was 6.3 nM.
As to `CC(C)(C)OC(=O)COCCCCCCCCCCCCNC(=O)[C@@H]1CN(C(=O)c2ccc(C(=O)N3C[C@@H](C(=O)N[C@H]4C[C@@H]4c4ccccc4)[C@H](C(=O)N[C@H]4C[C@@H]4c4ccccc4)C3)cc2)C[C@H]1C(=O)N[C@H]1C[C@@H]1c1ccccc1` [Compound 49, tert-Butyl 2-((12-((3S,4S)-1-(4-((3S,4S)-3,4-bis(((1S,2R)-2-phenylcyclopropyl)carbamoyl)-pyrrolidine-1-carbonyl)benzoyl)-4-(((1S,2R)-2-phenylcyclopropyl)carbamoyl)pyrrolidine-3-carboxamido)dodecyl)oxy)acetate], the values for the Emax at TLR1/TLR2 [1] and at TLR1/TLR2 [2] were 100% and 270%, respectively. Besides, the EC50 was 15 nM at TLR1/TLR2 [1] (setting [3]) and 1.8 nM on TLR1/TLR2 [2] (setting [4]).
The matching figures for `COC(=O)CNC(=O)OCCCCCCCCCCCCNC(=O)[C@@H]1CN(C(=O)c2ccc(C(=O)N3C[C@@H](C(=O)N[C@H]4C[C@@H]4c4ccccc4)[C@H](C(=O)N[C@H]4C[C@@H]4c4ccccc4)C3)cc2)C[C@H]1C(=O)N[C@H]1C[C@@H]1c1ccccc1` [Compound 50, Methyl 2-((((12-((3S,4S)-1-(4-((3S,4S)-3,4-bis-(((1S,2R)-2-phenylcyclopropyl)carbamoyl)pyrrolidine-1-carbonyl)benzoyl)-4-(((1S,2R)-2-phenylcyclopropyl)-carbamoyl)pyrrolidine-3-carboxamido)dodecyl)oxy)-carbonyl)amino)acetate]: 90%, 90%, 0.2 nM and 6 nM.
As to `O=C(NCCCCCCCCCCCCOCc1ccc([N+](=O)[O-])cc1)[C@@H]1CN(C(=O)c2ccc(C(=O)N3C[C@@H](C(=O)N[C@H]4C[C@@H]4c4ccccc4)[C@H](C(=O)N[C@H]4C[C@@H]4c4ccccc4)C3)cc2)C[C@H]1C(=O)N[C@H]1C[C@@H]1c1ccccc1` [Compound 51, (3S,4S)-1-(4-((3S,4S)-3,4-Bis(((1S,2R)-2-phenylcyclo-propyl)carbamoyl)pyrrolidine-1-carbonyl)-benzoyl)-N^3-(12-((4-nitrobenzyl)oxy)dodecyl)-N^4-((1S,2R)-2-phenyl-cyclopropyl)pyrrolidine-3,4-dicarboxamide], the Emax at TLR1/TLR2 [1] came out at 110%; on TLR1/TLR2 [2] it was 230%. In addition, the EC50 on TLR1/TLR2 [1] (setting [3]) was determined as 0.25 nM; on TLR1/TLR2 [2] (setting [4]) it was 0.85 nM.
On the same counts, the results for `Nc1ccc(COCCCCCCCCCCCCNC(=O)[C@@H]2CN(C(=O)c3ccc(C(=O)N4C[C@@H](C(=O)N[C@H]5C[C@@H]5c5ccccc5)[C@H](C(=O)N[C@H]5C[C@@H]5c5ccccc5)C4)cc3)C[C@H]2C(=O)N[C@H]2C[C@@H]2c2ccccc2)cc1` [Compound 52, (3S,4S)—N^3-(12-((4-Aminobenzyl)oxy)dodecyl)-1-(4-((3S,4S)-3,4-bis(((1S,2R)-2-phenyl-cyclopropyl)carbamoyl)pyrrolidine-1-carbonyl)-benzoyl)-N^4-((1S,2R)-2-phenylcyclopropyl)pyrrolidine-3,4-dicarboxamide] are 90%, 130%, 0.26 nM and 2 nM.
Turning to `C#CCN(C)CC(=O)OCCCCCCCCCCCCNC(=O)[C@@H]1CN(C(=O)c2ccc(C(=O)N3C[C@@H](C(=O)N[C@H]4C[C@@H]4c4ccccc4)[C@H](C(=O)N[C@H]4C[C@@H]4c4ccccc4)C3)cc2)C[C@H]1C(=O)N[C@H]1C[C@@H]1c1ccccc1` [Compound 53, 12-((3S,4S)-1-(4-((3S,4S)-3,4-Bis(((1S,2R)-2-phenylcyclopropyl)carbamoyl)pyrrolidine-1-carbonyl)-benzoyl)-4-(((1S,2R)-2-phenylcyclopropyl)carbamoyl)-pyrrolidine-3-carboxamido)dodecyl 2-(methyl(prop-2-yn-1-yl)amino)acetate], the Emax at TLR1/TLR2 [1] was 40%; on TLR1/TLR2 [2] it was 100%. For the same molecule, the figures for the EC50 at TLR1/TLR2 [1] (setting [3]) and at TLR1/TLR2 [2] (setting [4]) were 0.59 nM and 5.3 nM, respectively.

(Values after patent US20250367166A1, “NEXT GENERATION DIPROVOCIMS THAT ACTIVATE THE INNATE AND ADAPTIVE IMMUNE RESPONSE” (The Scripps Research Institute, priority 2022, published 2025).)
